Results as given in PubChem BioAssay (NCI).
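48-hour exposure; five concentrations; linearly interpolated endpoints. GI50 = concentration required for 50% inhibition of growth. TGI is the concentration that stops growth completely.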

Assays:
Assay in all cases: DTP human tumour cell line panel, 48 h
786-0 renal = tested on: 786-0 renal
A498 renal = tested on: A498 renal
A549 NSCLC = tested on: A549 NSCLC
ACHN renal = tested on: ACHN renal
BT-549 breast = tested on: BT-549 breast
CAKI-1 renal = tested on: CAKI-1 renal
CCRF-CEM leukemia = tested on: CCRF-CEM leukemia
COLO 205 colon = tested on: COLO 205 colon
DU-145 prostate = tested on: DU-145 prostate
EKVX NSCLC = tested on: EKVX NSCLC
HCC-2998 colon = tested on: HCC-2998 colon
HCT-116 colon = tested on: HCT-116 colon
HCT-15 colon = tested on: HCT-15 colon
HL-60(TB) leukemia = tested on: HL-60(TB) leukemia
HOP-62 NSCLC = tested on: HOP-62 NSCLC
HOP-92 NSCLC = tested on: HOP-92 NSCLC
HS 578T breast = tested on: HS 578T breast
HT29 colon = tested on: HT29 colon
IGROV1 ovarian = tested on: IGROV1 ovarian
K-562 leukemia = tested on: K-562 leukemia
KM12 colon = tested on: KM12 colon
LOX IMVI melanoma = tested on: LOX IMVI melanoma
M14 melanoma = tested on: M14 melanoma
MALME-3M melanoma = tested on: MALME-3M melanoma
MCF7 breast = tested on: MCF7 breast
MDA-MB-231 breast = tested on: MDA-MB-231 breast
MDA-MB-435 = tested on: MDA-MB-435
MDA-MB-468 breast = tested on: MDA-MB-468 breast
MOLT-4 leukemia = tested on: MOLT-4 leukemia
NCI-H226 lung = tested on: NCI-H226 lung
NCI-H23 lung = tested on: NCI-H23 lung
NCI-H460 lung = tested on: NCI-H460 lung
NCI-H522 lung = tested on: NCI-H522 lung
NCI/ADR-RES ovarian = tested on: NCI/ADR-RES ovarian
OVCAR-3 ovarian = tested on: OVCAR-3 ovarian
OVCAR-4 ovarian = tested on: OVCAR-4 ovarian
OVCAR-5 ovarian = tested on: OVCAR-5 ovarian
OVCAR-8 ovarian = tested on: OVCAR-8 ovarian
PC-3 prostate = tested on: PC-3 prostate
RPMI-8226 leukemia = tested on: RPMI-8226 leukemia
RXF 393 renal = tested on: RXF 393 renal
SF-268 CNS = tested on: SF-268 CNS
SF-295 CNS = tested on: SF-295 CNS
SF-539 CNS = tested on: SF-539 CNS
SK-MEL-2 melanoma = tested on: SK-MEL-2 melanoma
SK-MEL-28 melanoma = tested on: SK-MEL-28 melanoma
SK-MEL-5 melanoma = tested on: SK-MEL-5 melanoma
SK-OV-3 ovarian = tested on: SK-OV-3 ovarian
SN12C renal = tested on: SN12C renal
SNB-19 CNS = tested on: SNB-19 CNS
SNB-75 CNS = tested on: SNB-75 CNS
SR leukemia = tested on: SR leukemia
SW-620 colon = tested on: SW-620 colon
T-47D breast = tested on: T-47D breast
TK-10 renal = tested on: TK-10 renal
U251 CNS = tested on: U251 CNS
UACC-257 melanoma = tested on: UACC-257 melanoma
UACC-62 melanoma = tested on: UACC-62 melanoma
UO-31 renal = tested on: UO-31 renal

CS(=O)(=O)Nc1cc(-c2ccc3ncnc(N4CCc5cc(F)c(Cl)cc54)c3c2)cnc1Cl
GI50 (786-0 renal): 1.64 µM
TGI (786-0 renal): 27 µM
GI50 (A498 renal): 0.64 µM
TGI (A498 renal): 3.54 µM
GI50 (A549 NSCLC): 1.64 µM
TGI (A549 NSCLC): 8.67 µM
GI50 (ACHN renal): 1.66 µM
TGI (ACHN renal): > 100 µM
GI50 (BT-549 breast): 1.48 µM
TGI (BT-549 breast): 5.11 µM
GI50 (CAKI-1 renal): 0.748 µM
TGI (CAKI-1 renal): 7.32 µM
GI50 (CCRF-CEM leukemia): 1.84 µM
TGI (CCRF-CEM leukemia): > 100 µM
GI50 (COLO 205 colon): 1.61 µM
TGI (COLO 205 colon): 9.61 µM
GI50 (DU-145 prostate): 1.67 µM
TGI (DU-145 prostate): 19.5 µM
GI50 (EKVX NSCLC): 0.559 µM
TGI (EKVX NSCLC): 3.63 µM
GI50 (HCC-2998 colon): 1.24 µM
TGI (HCC-2998 colon): 8.36 µM
GI50 (HCT-116 colon): 3.49 µM
TGI (HCT-116 colon): 17.4 µM
GI50 (HCT-15 colon): 1 µM
TGI (HCT-15 colon): 11.4 µM
GI50 (HL-60(TB) leukemia): 0.484 µM
TGI (HL-60(TB) leukemia): 15.1 µM
GI50 (HOP-62 NSCLC): 0.704 µM
TGI (HOP-62 NSCLC): 7.36 µM
GI50 (HOP-92 NSCLC): 0.595 µM
TGI (HOP-92 NSCLC): 6.68 µM
GI50 (HS 578T breast): 0.166 µM
TGI (HS 578T breast): 1.13 µM
GI50 (HT29 colon): 1.48 µM
TGI (HT29 colon): 16.8 µM
GI50 (IGROV1 ovarian): 0.194 µM
TGI (IGROV1 ovarian): 0.979 µM
GI50 (K-562 leukemia): 5.37 µM
TGI (K-562 leukemia): 68.8 µM
GI50 (KM12 colon): 3.02 µM
TGI (KM12 colon): 18.5 µM
GI50 (LOX IMVI melanoma): 1.05 µM
TGI (LOX IMVI melanoma): 4.09 µM
GI50 (M14 melanoma): 1.48 µM
TGI (M14 melanoma): 14.7 µM
GI50 (MALME-3M melanoma): 0.174 µM
TGI (MALME-3M melanoma): 1.55 µM
GI50 (MCF7 breast): 0.255 µM
TGI (MCF7 breast): 11.6 µM
GI50 (MDA-MB-231 breast): 1.51 µM
TGI (MDA-MB-231 breast): 4.29 µM
GI50 (MDA-MB-435): 1.72 µM
TGI (MDA-MB-435): 13 µM
GI50 (MDA-MB-468 breast): 0.211 µM
TGI (MDA-MB-468 breast): 1.38 µM
GI50 (MOLT-4 leukemia): 1.06 µM
TGI (MOLT-4 leukemia): 5 µM
GI50 (NCI-H226 lung): 0.672 µM
TGI (NCI-H226 lung): 7.43 µM
GI50 (NCI-H23 lung): 1.63 µM
TGI (NCI-H23 lung): 9.94 µM
GI50 (NCI-H460 lung): 0.922 µM
TGI (NCI-H460 lung): 13.1 µM
GI50 (NCI-H522 lung): 1.62 µM
TGI (NCI-H522 lung): 14.3 µM
GI50 (NCI/ADR-RES ovarian): 1.95 µM
TGI (NCI/ADR-RES ovarian): 15.3 µM
GI50 (OVCAR-3 ovarian): 0.83 µM
TGI (OVCAR-3 ovarian): 4.56 µM
GI50 (OVCAR-4 ovarian): 2.35 µM
TGI (OVCAR-4 ovarian): 21.1 µM
GI50 (OVCAR-5 ovarian): 1.87 µM
TGI (OVCAR-5 ovarian): 23.5 µM
GI50 (OVCAR-8 ovarian): 1.87 µM
TGI (OVCAR-8 ovarian): 20.5 µM
GI50 (PC-3 prostate): 1.03 µM
TGI (PC-3 prostate): 21 µM
GI50 (RPMI-8226 leukemia): 1.84 µM
TGI (RPMI-8226 leukemia): > 100 µM
GI50 (RXF 393 renal): 0.577 µM
TGI (RXF 393 renal): 3.17 µM
GI50 (SF-268 CNS): 1.65 µM
TGI (SF-268 CNS): 47.9 µM
GI50 (SF-295 CNS): 1.06 µM
TGI (SF-295 CNS): 5.28 µM
GI50 (SF-539 CNS): 1.56 µM
TGI (SF-539 CNS): 6.73 µM
GI50 (SK-MEL-2 melanoma): 1.73 µM
TGI (SK-MEL-2 melanoma): 5.8 µM
GI50 (SK-MEL-28 melanoma): 1.32 µM
TGI (SK-MEL-28 melanoma): 13.4 µM
GI50 (SK-MEL-5 melanoma): 0.85 µM
TGI (SK-MEL-5 melanoma): 2.61 µM
GI50 (SK-OV-3 ovarian): 0.444 µM
TGI (SK-OV-3 ovarian): 2.84 µM
GI50 (SN12C renal): 1.68 µM
TGI (SN12C renal): 36.5 µM
GI50 (SNB-19 CNS): 1.64 µM
TGI (SNB-19 CNS): 13.4 µM
GI50 (SNB-75 CNS): 0.254 µM
TGI (SNB-75 CNS): 3 µM
GI50 (SR leukemia): 1.52 µM
TGI (SR leukemia): 12.9 µM
GI50 (SW-620 colon): 2.51 µM
TGI (SW-620 colon): 17.4 µM
GI50 (T-47D breast): 0.141 µM
TGI (T-47D breast): 0.963 µM
GI50 (TK-10 renal): 0.644 µM
TGI (TK-10 renal): 9.62 µM
GI50 (U251 CNS): 2.36 µM
TGI (U251 CNS): 17.5 µM
GI50 (UACC-257 melanoma): 1.39 µM
TGI (UACC-257 melanoma): 11 µM
GI50 (UACC-62 melanoma): 0.382 µM
TGI (UACC-62 melanoma): 2.57 µM
GI50 (UO-31 renal): 0.252 µM
TGI (UO-31 renal): 4.05 µM
